For one assay, the target named is HDAC6 human recombinant (Homo sapiens (Human), UniProt Q9UBN7). Nature of the assay: HDAC enzyme activity inhibition (in vitro), HDAC6 assay. The class given is biochemical. Conditions: samples at 0.1, 1, 10, 100 and 1000 nM; 37° C. 60 minutes; fluorescence Ex 390, Em 460.
A further assay deals with HDAC1 (Homo sapiens (Human), UniProt Q13547). Description: HDAC enzyme activity inhibition (in vitro), HDAC1 Fluorimetric Drug Discovery Assay Kit. Format: biochemical. Conditions: samples at 100, 1000 and 10000 nM; 37° C. 60 minutes; fluorescence Ex 390, Em 460.
Chain of HDAC1 (Q13547 whole entry): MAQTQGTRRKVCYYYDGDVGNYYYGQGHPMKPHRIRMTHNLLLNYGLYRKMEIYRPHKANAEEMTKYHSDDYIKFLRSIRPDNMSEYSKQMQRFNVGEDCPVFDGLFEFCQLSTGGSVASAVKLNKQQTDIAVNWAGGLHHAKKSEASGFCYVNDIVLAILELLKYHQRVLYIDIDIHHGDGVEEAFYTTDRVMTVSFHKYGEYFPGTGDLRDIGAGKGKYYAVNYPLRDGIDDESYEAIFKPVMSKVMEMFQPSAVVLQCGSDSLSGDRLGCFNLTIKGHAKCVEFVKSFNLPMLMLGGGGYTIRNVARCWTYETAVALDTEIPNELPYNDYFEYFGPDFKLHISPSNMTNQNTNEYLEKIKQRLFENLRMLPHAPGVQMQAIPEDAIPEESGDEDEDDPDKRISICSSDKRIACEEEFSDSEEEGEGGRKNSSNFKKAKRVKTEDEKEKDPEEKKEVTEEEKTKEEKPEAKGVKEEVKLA

Chain of HDAC6 human recombinant (Q9UBN7 whole entry): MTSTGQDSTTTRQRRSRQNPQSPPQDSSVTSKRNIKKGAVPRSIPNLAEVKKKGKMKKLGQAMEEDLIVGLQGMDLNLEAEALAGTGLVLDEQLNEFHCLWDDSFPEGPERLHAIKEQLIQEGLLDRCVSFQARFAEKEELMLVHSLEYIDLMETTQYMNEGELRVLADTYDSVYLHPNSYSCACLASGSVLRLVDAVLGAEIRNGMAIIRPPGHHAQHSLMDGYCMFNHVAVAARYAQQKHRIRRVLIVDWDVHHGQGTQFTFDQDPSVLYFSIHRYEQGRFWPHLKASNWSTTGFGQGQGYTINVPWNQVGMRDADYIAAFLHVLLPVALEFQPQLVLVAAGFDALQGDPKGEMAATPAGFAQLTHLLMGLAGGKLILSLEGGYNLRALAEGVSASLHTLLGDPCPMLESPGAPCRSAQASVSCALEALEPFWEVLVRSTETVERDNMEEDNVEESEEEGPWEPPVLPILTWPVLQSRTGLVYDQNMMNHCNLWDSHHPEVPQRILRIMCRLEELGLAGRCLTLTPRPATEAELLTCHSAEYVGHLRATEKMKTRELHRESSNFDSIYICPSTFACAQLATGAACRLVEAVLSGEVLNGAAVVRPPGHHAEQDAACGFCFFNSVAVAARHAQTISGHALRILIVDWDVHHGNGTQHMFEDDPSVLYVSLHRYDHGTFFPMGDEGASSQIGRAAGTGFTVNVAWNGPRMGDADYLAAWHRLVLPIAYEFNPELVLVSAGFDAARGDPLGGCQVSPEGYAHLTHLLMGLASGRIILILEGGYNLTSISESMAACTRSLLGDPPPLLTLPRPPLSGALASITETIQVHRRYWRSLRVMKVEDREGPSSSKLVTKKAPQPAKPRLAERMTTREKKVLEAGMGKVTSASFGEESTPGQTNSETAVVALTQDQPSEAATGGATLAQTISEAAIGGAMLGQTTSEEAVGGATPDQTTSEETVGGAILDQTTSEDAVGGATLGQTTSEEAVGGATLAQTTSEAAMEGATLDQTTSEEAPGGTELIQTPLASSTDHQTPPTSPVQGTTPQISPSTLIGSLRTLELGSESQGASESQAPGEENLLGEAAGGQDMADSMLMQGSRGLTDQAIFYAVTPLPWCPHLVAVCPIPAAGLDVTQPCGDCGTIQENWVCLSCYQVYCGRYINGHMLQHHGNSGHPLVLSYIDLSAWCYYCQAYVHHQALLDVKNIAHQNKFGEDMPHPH

The term IC50 denotes the concentration needed to halve the response being measured. Turning to `Cn1c(=O)n(Cc2ccc(-c3nnc(C(F)F)o3)cn2)c(=O)c2ccccc21` [Compound 18, 3-((5-(5-(difluoromethyl)-1,3,4-oxadiazole-2-yl)pyridine-2-yl)methyl)-1-methylquinazoline-2,4(1H,3H)-dione], the IC50 is 132 nM on HDAC6 human recombinant and greater than 10000 nM against HDAC1.

On to `CC1(C)C(=O)N(Cc2ccc(-c3nnc(C(F)F)o3)cn2)C(=O)c2cc(N3CCN(CC(F)(F)F)CC3)ccc21` [Compound 133, 2-((5-(5-(difluoromethyl)-1,3,4-oxadiazole-2-yl)pyridine-2-yl)methyl)-4,4-dimethyl-7-(4-(2,2,2-trifluoroethyl)piperazine-1-yl)isoquinoline-1,3(2H,4H)-dione], for which the figures for the 50% inhibitory concentration (IC50) at HDAC6 human recombinant and on HDAC1 were 76 nM and greater than 10000 nM, respectively.

In the case of `CCN1CC=C(c2ccc3c(c2)C(C)(C)C(=O)N(Cc2ncc(-c4nnc(C(F)F)o4)cn2)C3=O)CC1` [Compound 155, 2-((5-(5-(difluoromethyl)-1,3,4-oxadiazole-2-yl)pyrimidine-2-yl)methyl)-6-(1-ethyl-1,2,3,6-tetrahydropyridine-4-yl)-4,4-dimethylisoquinoline-1,3(2H,4H)-dione], the figures for the IC50 at HDAC6 human recombinant and against HDAC1 were 185 nM and greater than 10000 nM, respectively.

With `O=C1Cc2ccccc2C(=O)N1Cc1ccc(-c2nnc(C(F)F)o2)cn1` [Compound 65, 2-((5-(5-(difluoromethyl)-1,3,4-oxadiazole-2-yl)pyridine-2-yl)methyl)isoquinoline-1,3(2H,4H)-dione], the concentration for half-maximal inhibition (IC50) was 133 nM on HDAC6 human recombinant and greater than 10000 nM against HDAC1.

Consider `Cn1c(=O)n(Cc2ccc(-c3nnc(C(F)F)o3)cn2)c(=O)c2ccc(-c3ccncc3)cc21` [Compound 101, 3-((5-(5-(difluoromethyl)-1,3,4-oxadiazole-2-yl)pyridine-2-yl)methyl)-1-methyl-7-(pyridine-4-yl)quinazoline-2,4(1H,3H)-dione], for which the results for the IC50 at HDAC6 human recombinant and on HDAC1 were 33 nM and greater than 10000 nM, respectively.

With `CN(C)C(=O)C1CCN(c2ccc3c(c2)C(C)(C)C(=O)N(Cc2ccc(-c4nnc(C(F)F)o4)cn2)C3=O)CC1` [Compound 57, 1-(2-((5-(5-(difluoromethyl)-1,3,4-oxadiazole-2-yl)pyridine-2-yl)methyl)-4,4-dimethyl-1,3-dioxo-1,2,3,4-tetrahydroisoquinoline-6-yl)-N,N-dimethylpiperidine-4-carboxamide], the half-maximal inhibitory concentration (IC50) was 32 nM at HDAC6 human recombinant and greater than 10000 nM against HDAC1.

Turning to `CCN1CCN(c2ccc3c(c2)C(CC)(CC)C(=O)N(Cc2ccc(-c4nnc(C(F)F)o4)cn2)C3=O)CC1` [Compound 142, 2-((5-(5-(difluoromethyl)-1,3,4-oxadiazole-2-yl)pyridine-2-yl)methyl)-4,4-diethyl-6-(4-ethylpiperazine-1-yl)isoquinoline-1,3(2H,4H)-dione], the concentration for half-maximal inhibition (IC50) is 81 nM at HDAC6 human recombinant and greater than 10000 nM against HDAC1.

Consider `CN1CCC(Cn2c(=O)n(Cc3ccc(-c4nnc(C(F)F)o4)cn3)c(=O)c3cc(F)ccc32)CC1` [Compound 73, 3-((5-(5-(difluoromethyl)-1,3,4-oxadiazole-2-yl)pyridine-2-yl)methyl)-6-fluoro-1-((1-methylpiperidine-4-yl)methyl)quinazoline-2,4(1H,3H)-dione], for which the IC50 was 98 nM at HDAC6 human recombinant and greater than 10000 nM against HDAC1.

Regarding `O=C1c2ccccc2C2(CCC2)C(=O)N1Cc1ccc(-c2nnc(C(F)F)o2)cc1F` [Compound 3, 2′-(4-(5-(difluoromethyl)-1,3,4-oxadiazole-2-yl)-2-fluorobenzyl)-1′H-spiro[cyclobutane-1,4′-isoquinoline]-1′,3′(2′H)-dione], the IC50 on HDAC6 human recombinant is 318 nM; against HDAC1, greater than 10000 nM.

Regarding `CC1(C)C(=O)N(Cc2ccc(-c3nnc(C(F)F)o3)cn2)C(=O)c2ccc(N3CCN(C4COC4)CC3)cc21` [Compound 30, 2-((5-(5-(difluoromethyl)-1,3,4-oxadiazole-2-yl)pyridine-2-yl)methyl)-4,4-dimethyl-6-(4-(oxetan-3-yl)piperazine-1-yl)isoquinoline-1,3(2H,4H)-dione], the values for the IC50 on HDAC6 human recombinant and against HDAC1 were 46 nM and greater than 10000 nM, respectively.

Turning to `Cn1c(=O)n(Cc2ccc(-c3nnc(C(F)F)o3)cn2)c(=O)c2ccc(C3=CCNCC3)cc21` [Compound 122, 3-((5-(5-(difluoromethyl)-1,3,4-oxadiazole-2-yl)pyridine-2-yl)methyl)-1-methyl-7-(1,2,3,6-tetrahydropyridine-4-yl)quinazoline-2,4(1H,3H)-dione], the IC50 on HDAC6 human recombinant was 23 nM; against HDAC1, greater than 10000 nM.

Consider `CC1(C)C(=O)N(Cc2ccc(-c3nnc(C(F)F)o3)cn2)C(=O)c2ccc(-c3cccnc3)cc21` [Compound 104, 2-((5-(5-(difluoromethyl)-1,3,4-oxadiazole-2-yl)pyridine-2-yl)methyl)-4,4-dimethyl-6-(pyridine-3-yl)isoquinoline-1,3(2H,4H)-dione], for which the IC50 on HDAC6 human recombinant was 20 nM; on HDAC1 it was greater than 10000 nM.

With `CCCCCN1CCN(c2ccc3c(c2)C(C)(C)C(=O)N(Cc2ccc(-c4nnc(C(F)F)o4)cn2)C3=O)CC1` [Compound 45, 2-((5-(5-(difluoromethyl)-1,3,4-oxadiazole-2-yl)pyridine-2-yl)methyl)-4,4-dimethyl-6-(4-pentylpiperazine-1-yl)isoquinoline-1,3(2H,4H)-dione], the IC50 was 156 nM on HDAC6 human recombinant and greater than 10000 nM against HDAC1.

`CC1(C)C(=O)N(Cc2ccc(-c3nnc(C(F)F)o3)cc2F)C(=O)c2ccccc21` [Compound 7, 2-(4-(5-(difluoromethyl)-1,3,4-oxadiazole-2-yl)-2-fluorobenzyl)-4,4-dimethylisoquinoline-1,3(2H,4H)-dione]: the results for the IC50 on HDAC6 human recombinant and on HDAC1 were 145 nM and greater than 10000 nM, respectively.

For the compound `CC1(C)C(=O)N(Cc2ccc(-c3nnc(C(F)F)o3)cn2)C(=O)c2ccc(N3CC4(COC4)C3)cc21` [Compound 40, 2-((5-(5-(difluoromethyl)-1,3,4-oxadiazole-2-yl)pyridine-2-yl)methyl)-4,4-dimethyl-6-(2-oxa-6-azaspiro[3.3]heptane-6-yl)isoquinoline-1,3(2H,4H)-dione], the 50% inhibitory concentration (IC50) was 22 nM on HDAC6 human recombinant and greater than 10000 nM at HDAC1.

`Cn1c(=O)n(Cc2ccc(-c3nnc(C(F)F)o3)cn2)c(=O)c2ccc(Br)cc21` [Compound 97, 7-bromo-3-((5-(5-(difluoromethyl)-1,3,4-oxadiazole-2-yl)pyridine-2-yl)methyl)-1-methylquinazoline-2,4(1H,3H)-dione]: the values for the IC50 on HDAC6 human recombinant and against HDAC1 were 61 nM and greater than 10000 nM, respectively.

In the case of `CN1CC=C(c2ccc3c(c2)C(C)(C)C(=O)N(Cc2ccc(-c4nnc(C(F)F)o4)cn2)C3=O)CC1` [Compound 42, 2-((5-(5-(difluoromethyl)-1,3,4-oxadiazole-2-yl)pyridine-2-yl)methyl)-4,4-dimethyl-6-(1-methyl-1,2,3,6-tetrahydropyridine-4-yl)isoquinoline-1,3(2H,4H)-dione], the IC50 at HDAC6 human recombinant is 35 nM; against HDAC1, greater than 10000 nM.

Regarding `CCN1CCC(c2ccc3c(c2)C(C)(C)C(=O)N(Cc2ncc(-c4nnc(C(F)F)o4)cn2)C3=O)CC1` [Compound 156, 2-((5-(5-(difluoromethyl)-1,3,4-oxadiazole-2-yl)pyrimidine-2-yl)methyl)-6-(1-ethylpiperidine-4-yl)-4,4-dimethylisoquinoline-1,3(2H,4H)-dione], the IC50 is 56 nM at HDAC6 human recombinant and greater than 10000 nM against HDAC1.

With `Cc1ccc(-c2ccc3c(c2)C(=O)N(Cc2ccc(-c4nnc(C(F)F)o4)cn2)C(=O)C3(C)C)o1` [Compound 114, 2-((5-(5-(difluoromethyl)-1,3,4-oxadiazole-2-yl)pyridine-2-yl)methyl)-4,4-dimethyl-7-(5-methylfuran-2-yl)isoquinoline-1,3(2H,4H)-dione], the IC50 was 77 nM at HDAC6 human recombinant and greater than 10000 nM against HDAC1.

In the case of `CN(C)CCCn1c(=O)n(Cc2ccc(-c3nnc(C(F)F)o3)cn2)c(=O)c2ccccc21` [Compound 19, 3-((5-(5-(difluoromethyl)-1,3,4-oxadiazole-2-yl)pyridine-2-yl)methyl)-1-(3-(dimethylamino)propyl)quinazoline-2,4(1H,3H)-dione], the IC50 at HDAC6 human recombinant is 249 nM; at HDAC1, greater than 10000 nM.

In the case of `COc1ccc(Cn2c(=O)n(Cc3ccc(-c4nnc(C(F)F)o4)cn3)c(=O)c3cc(F)ccc32)cc1` [Compound 66, 3-((5-(5-(difluoromethyl)-1,3,4-oxadiazole-2-yl)pyridine-2-yl)methyl)-6-fluoro-1-(4-methoxybenzyl)quinazoline-2,4(1H,3H)-dione], the IC50 was 216 nM on HDAC6 human recombinant and greater than 10000 nM at HDAC1.

Regarding `CC1(C)C(=O)N(Cc2ccc(-c3nnc(C(F)F)o3)cn2)C(=O)c2cc(C3=CCSCC3)ccc21` [Compound 121, 2-((5-(5-(difluoromethyl)-1,3,4-oxadiazole-2-yl)pyridine-2-yl)methyl)-7-(3,6-dihydro-2H-thiopyran-4-yl)-4,4-dimethylisoquinoline-1,3(2H,4H)-dione], the 50% inhibitory concentration (IC50) is 36 nM on HDAC6 human recombinant and greater than 10000 nM on HDAC1.

As for `CC1(C)C(=O)N(Cc2ccc(-c3nnc(C(F)F)o3)cn2)C(=O)c2ccc(Br)cc21` [Compound 23, 6-bromo-2-((5-(5-(difluoromethyl)-1,3,4-oxadiazole-2-yl)pyridine-2-yl)methyl)-4,4-dimethylisoquinoline-1,3(2H,4H)-dione], the figures for the IC50 on HDAC6 human recombinant and on HDAC1 were 65 nM and greater than 10000 nM, respectively.

As to `CC1(C)C(=O)N(Cc2ccc(-c3nnc(C(F)F)o3)cn2)C(=O)c2ccc(N3C[C@@H]4C[C@H]3CN4S(C)(=O)=O)cc21` [Compound 58, 2-((5-(5-(difluoromethyl)-1,3,4-oxadiazole-2-yl)pyridine-2-yl)methyl)-4,4-dimethyl-6-((1S,4S)-5-(methylsulfonyl)-2,5-diazabicyclo[2.2.1]heptane-2-yl)isoquinoline-1,3(2H,4H)-dione], the IC50 at HDAC6 human recombinant was 14 nM; against HDAC1, greater than 10000 nM.

As for `CC1(C)C(=O)N(Cc2ccc(-c3nnc(C(F)F)o3)cn2)C(=O)c2cc(N3CCOCC3)ccc21` [Compound 52, 2-((5-(5-(difluoromethyl)-1,3,4-oxadiazole-2-yl)pyridine-2-yl)methyl)-4,4-dimethyl-7-morpholinoisoquinoline-1,3(2H,4H)-dione], the results for the IC50 at HDAC6 human recombinant and on HDAC1 were 40 nM and greater than 10000 nM, respectively.

These data come from US12440484B2, “1,3,4-oxadiazole homophthalimide derivative compounds as histone deacetylase 6 inhibitor, and the pharmaceutical composition comprising the same” (Chong Kun Dang Pharmaceutical Corp., priority 2019, dated 2025).
